The source of these data is patent publication US6998387B1, “Human appetite control by glucagon-like peptide receptor binding compounds” (Amylin Pharmaceuticals, Inc., priority 1998, dated 2006).

Data set [1] has as its system rats. Particulars: cited from earlier work.
In data set [2] the test system is healthy male subjects. In words: Effect of graded intravenous doses of synthetic human GLP-1 on food intake (Example 1). The conditions noted are these: for Calorie intake / Fluid intake / Food quantity / Meal duration: 16 healthy male subjects, mean, SEM. The procedure:
A randomized, double-blind design was carried out with 16 healthy men aged 23.6±0.5 years. The weight of all subjects was within normal range considering their age, sex, and height. Each subject gave written informed consent for the study.
Four treatments (0, 0.375, 0.75 and 1.5 pmol/kg), separated by at least 7 days, were administered to the 16 subjects. […] An identical standard meal was presented to the subjects on each occasion. The meal consisted of orange juice as an appetizer (480 kcal per 1); ham sandwiches (60 g bread, 10 g butter, 25 g ham 266 kcal per sandwich) and more orange juice and chocolate pudding (172 kcal per 100 g): coffee with cream and sugar (coffee could be sweetened if desired; therefore both cream and sugar were optional @ 12 g cream=20 kcal, 4.5 sugar=18 kcal). No other food or liquid was allowed during the study. At the end of the study, the amount of food eaten and the amount of fluid ingested was measured by absolute weight from which total caloric intake (food and fluid intake) was calculated.
Each subject was free to eat and drink as much as they wished, but the order of food intake had to follow the above schedule. To reduce participant's awareness of the amount of food being provided, food was served in excess.
On the first day of each treatment, each subject ate breakfast, if this was their normal custom; however, no snacks were allowed after 8:00 a.m. […] Infusions were delivered by ambulatory infusion pumps through a teflon catheter inserted into a forearm vein. Participants were able to sit, eat, stand and walk comfortably while receiving infusions. At 60 minutes after the start of the respective infusion, the test meal was presented and each participant was invited to eat and drink as much as they liked.
Beginning at 12:00 noon, the subjects scored their subjective feelings of hunger and fullness at 15 minute intervals throughout the treatments using a visual analogue scale of 0–10 and indicated the scores on a questionnaire. The scales and scores were designed as previously described (Welch I. M. et al. Gut 29:306–311 (1988); Welch I. M. et al. Gastroenterology 89:1293–1297 (1985); Drewe, J. et al. Gastroenterology 102:1654–1659 (1982)). For example, a score of 0 for hunger indicated the subject was not hungry at all, 2 indicated slightly hungry, 5 indicated moderately hungry, 8 indicated very hungry, and 10 indicated absolutely ravenous.
The quantity of food eaten and volume of fluid drunk was measured. The time for each subject to complete their meal was also measured. From these observations, the average rate of food and fluid intake, as well as the calorie intake, could be calculated. In the pre-meal period and after eating, blood was drawn at regular intervals into ethylenediaminetetraacetic acid (EDTA) tubes containing aprotinine (1000 KIU/ml blood) for glucose and hormone determinations.
The peptide was dissolved in 0.9% saline containing 0.5% human serum albumin, and prepared under aseptic conditions. Aliquots of 50 μg/5 ml were stored at −20° C. […] Treatments were delivered in a double-blind fashion.
The amount of food eaten and the amount of fluid drunk, the corresponding energy intake, and the duration of meal consumption were compared between the four by one-way analysis of variance (ANOVA) using the general linear model (GLM) procedure of the SAS software package (SAS Release 6.03. Cary, N C: SAS Institute, 1988). In the event of significant differences, ANOVA was followed by the Newman-Keuls multi-comparison test for pairwise comparisons (Sachs, L. Angewandte Statistik. Berlin, Springer, (1984)). […] Scores for hunger and fullness were compared at the different time points before and after meals between the different treatments using multiple paired t-tests with Bonferroni correction (Sachs, L. Angewandte Statistik. Berlin, Springer, (1984)).

A short description of data set [3]: Plasma glucose and hormone concentrations during graded GLP-1 infusion (Example 1). The data set is classed as in vivo, human. Particulars: healthy male subjects. The procedure: Glucose concentrations were measured by the hexokinase method. Plasma hormone concentrations of insulin, cholecystokinin, GLP-1 and leptin were measured as depicted in FIG. 1. All hormone concentrations were determined by specific radioimmunoassay systems. For insulin and leptin concentrations commercially available test kits were used. […] GLP-1 was measured as previously described (Schirra, J. et al. Proc. Assoc. Am. Phys. 109(1):84–971 (1997)). The detection limit of the GLP-1 assay was 2 fmol/tube. […] Intra-assay and inter-assay coefficients of variation were 3.4% and 10.4%, respectively.

Data set [4] has as its system patients with diabetes mellitus type 2. In words: Effect of GLP-1 infusion on eating behaviour in diabetes mellitus type 2 (Example 2). The procedure:
Twelve male patients were recruited for the study who had diabetes mellitus type 2 for at least one year. Patients were admitted to a Research Unit after given written informed consent and after the experimental protocol had been explained to them. The mean age of the patients was 55±2 years; their mean HbA1C was 8.1±4 and their mean BMi was 29.4±1.2. Seven patients were on oral antidiabetics. The participants were tested on two different days in a placebo-controlled, randomized, double-blind, crossover study. The two test days were separated by at least one week and by no more than three weeks.
On each test day, patients arrived in the Research Unit in the morning, having fasted overnight. A standardized, fixed energy breakfast was then served and it had to be completed before 8:30 a.m. After breakfast, patients were able to read and listen to music. At 11:00 a.m., two venflon catheters were inserted into the anticubital veins of each arm, one for infusion, the other one for blood drawing. […] Infusions were delivered by ambulatory infusion pumps. 60 min after the start of the respective infusion, a test meal was presented and the participants were invited to eat and drink as much as they liked.
Beginning with the infusions, participants scored their subjective feelings of hunger and fullness in 15 min intervals throughout the experiments using visual analogue scales (VAS) of 0–10 with text expressing the most positive and most negative rating anchored at each end. VAS were used to assess hunger, fullness, and prospective food consumption using scales and scores which have previously been designed.
Each subject was free to eat and drink as much as they wished until “comfortably satisfied” of a standard meal which consisted of a) orange juice as an appetizer (480 kcal/l); b) ham sandwiches (60 g, 10 g butter, 25 g ham: 266 kcal/sandwich) with more orange juice or with water; c) strawberry mousse (100 kcal/100 g); d) coffee with cream (coffee could be sweetened with aspartam if desired; both cream and aspartan were optional; 12 g cream=20 kcal). No additional food or fluid was allowed during the study. In addition, the order of food intake had to follow the above schedule. To reduce participants' awareness of the amount of food being provided, food was served in excess. The quantity of food eaten and the quantity of fluid drunk were measured. From these observations, the total energy intake could be calculated. In the pre-meal period and after eating, blood samples were taken in regular intervals for glucose and hormone determinations. Adverse events were assessed by the attending physician through close observation of each patient; in addition, each participant was questioned after each experiment and after they had completed the two tests whether they had experienced any adverse events.
The peptide was dissolved in 0.9% saline solution containing 0.5% human serum albumin and prepared under aseptic conditions by the University of Basel Hospital Pharmacy. Aliquots of 50 μg/5 ml were stored at −20° C. […] The solutions were prepared by a pharmacist who was not involved in the study. The physician in charge of the experiment was therefore not aware of the respective treatment, thereby making it possible to conduct treatments in a double-blind fashion.
The amount of food eaten and the amount of fluid drunk as well as the corresponding energy intake were compared between the two treatments by Wilcoxon Signed Ranks Test using an SAS software package. […] Scores for hunger and fullness were compared by calculating the S score from baseline (0 min) to 60 min of infusion using the Wilcoxon Signed Ranks Test. Differences were considered significant if p was <0.05.

Data set [5] is described as follows: Plasma glucose and hormone concentrations during GLP-1 infusion (Example 2). Particulars: diabetes mellitus type 2. The data set is classed as in vivo, human. As to the method:
Blood was drawn through the indwelling anticubital cannula into syringes on ice. These contained EDTA (6 μmol/l) and aprotinine (1000 KIU/l). After centrifugation, plasma hormone analyses were kept frozen at −20° C. Plasma glucose was analyzed by the glucose oxidase method. Insulin and glucagon concentrations in plasma were analyzed by commercially available radioimmunoassay kits (Biermann, Bad Nauheim, Germany). Immunoreactive GLP-1 was measured using the specific polyclonal antibody GA 1178 (Affinity Research, Nottingham, UK). Immunoreactivities were extracted from plasma samples on C-18 cartridges using acetonitrile for elution of samples. The detection limit of the assay was 0.25 pmol/l. Intra-and interassay coefficients of variation were 3.8% and 10.9%, respectively.
Differences were considered significant if p was <0.05.

The test system of data set [6] is obese humans. The conditions noted are these: infusion of GLP-1 over 210 minutes; cited from earlier work.
[7] abbreviates: GLP-1 0.375 pmol/kg/min i.v. infusion.
[8] abbreviates: GLP-1 0.75 pmol/kg/min i.v. infusion.
The mark [9] stands for this setting: GLP-1 1.5 pmol/kg/min i.v. infusion.
The mark [10] stands for this setting: pre-meal period, significant only for highest dose of GLP-1, healthy male subjects.
[11] abbreviates: GLP-1 1.5 pmol/kg per min i.v. vs saline, diabetes mellitus type 2.
The mark [12] stands for this setting: GLP-1 1.5 pmol/kg per min i.v., 12 patients with diabetes mellitus type 2, mean ± SEM.
The mark [13] stands for this setting: pre-meal period, baseline vs 60 min of infusion, diabetes mellitus type 2.

“Also recorded” adds a separate entry of the source. Read-outs that look alike come from different tables or passages of the source.

Turning to exendin (9–39) [reference compound], the “effect on GLP-1-induced inhibition of feeding” value in data set [1] (GLP-1 injected into the cerebral ventricles of fasted rats) is given as “blocked”. In addition, the food intake entry in data set [1] (exendin (9–39) alone, satiated rats) is recorded as “doubled food intake”.

In data set [2] (setting [7]), `CC[C@H](C)[C@H](NC(=O)[C@H](Cc1ccccc1)NC(=O)[C@H](CCC(=O)O)NC(=O)[C@H](CCCCN)NC(=O)[C@H](C)NC(=O)[C@H](C)NC(=O)[C@H](CCC(N)=O)NC(=O)CNC(=O)[C@H](CCC(=O)O)NC(=O)[C@H](CC(C)C)NC(=O)[C@H](Cc1ccc(O)cc1)NC(=O)[C@H](CO)NC(=O)[C@H](CO)NC(=O)[C@@H](NC(=O)[C@H](CC(=O)O)NC(=O)[C@H](CO)NC(=O)[C@@H](NC(=O)[C@H](Cc1ccccc1)NC(=O)[C@@H](NC(=O)CNC(=O)[C@H](CCC(=O)O)NC(=O)[C@H](C)NC(=O)[C@@H](N)Cc1c[nH]cn1)[C@@H](C)O)[C@@H](C)O)C(C)C)C(=O)N[C@@H](C)C(=O)N[C@@H](Cc1c[nH]c2ccccc12)C(=O)N[C@@H](CC(C)C)C(=O)N[C@H](C(=O)N[C@@H](CCCCN)C(=O)NCC(=O)N[C@@H](CCCNC(=N)N)C(N)=O)C(C)C` [GLP-1, Glucagon-like peptide-1 (7–36) amide] came in with a Calorie intake of 1520 ± 95 keal, a Fluid intake of 748 ± 52 mL, a Food quantity of 531 ± 35 and a Meal duration of 35 ± 3 min. Moreover, in data set [2] (setting [8]), the Calorie intake came to 1451 ± 101 keal, the Fluid intake is 689 ± 48 mL, the Food quantity is listed as 516 ± 40 and the Meal duration is 34 ± 3 min. Also, in data set [2] (setting [9]), the Calorie intake is recorded as 1107 ± 84 keal, the Fluid intake was determined as 584 ± 45 mL, the Food quantity was found to be 384 ± 34 and the Meal duration is 30 ± 3 min. In addition, the “reduction of fluid ingestion” value in data set [2] (GLP-1 i.v. infusion vs control, healthy male subjects) was found to be 18%. Further, the “side effects / adverse reactions” value in data set [2] (any infusion (0.375-1.5 pmol/kg per min i.v.), healthy male subjects) is “None of the participants reported any abdominal discomfort or side effects; also recorded: no overt side effects”. In data set [2] (setting [10]), the “subjective feeling of fullness (visual analogue scale 0–10)” value is “concomitant feeling of fullness; also recorded: early fullness” and the “subjective feeling of hunger (visual analogue scale 0–10)” value is on record as “reduced degree of hunger; also recorded: less hunger”. For the same compound, in data set [3] (any dose of GLP-1 administered), the leptin levels entry is on record as “did not change”. The “blood glucose and plasma insulin concentrations” value in data set [3] (graded i.v. doses of GLP-1 in 5% glucose) is on record as “dose-dependent, short-lasting increase”. Also, the “plasma GLP-1 concentration” value in data set [3] (highest dose of GLP-1 (1.5 pmol/kg per min) i.v. infusion) was “supraphysiological plasma concentrations”. Further, the “plasma CCK concentrations” value in data set [3] (pre-meal period, any dose of GLP-1) is “did not change”. For the same compound, in data set [4] (setting [11]), the “decrease in calorie intake” value worked out at 27% and the “maximal reduction in food consumption” value turned out to be 29%. In data set [4] (setting [12]), the Calorie intake came to 694 ± 79 kcal, the Fluid intake is 360 ± 60 mL and the “Food quantity” value worked out at 268 ± 31 g. The “side effects / adverse reaction” value in data set [4] (GLP-1 1.5 pmol/kg per min i.v., diabetes mellitus type 2) is “None of the participants reported any abdominal discomfort or side effects”. In data set [4] (setting [13]), the “fullness (VAS 0–10)” value is given as “increased feeling of fullness” and the “hunger (VAS 0–10)” value is “reduced degree of hunger”. The glucagon response result in data set [5] (GLP-1 1.5 pmol/kg per min i.v. vs saline) is “significantly reduced”. Further, the “plasma concentrations of GLP-1” value in data set [5] (GLP-1 1.5 pmol/kg per min i.v.) was “increased the plasma concentrations of GLP-1”. Further, the “blood glucose AUC” value in data set [5] (GLP-1 1.5 pmol/kg per min i.v., saline 1197±101) turned out to be 765 ± 65 mmol·min/L. In addition, the “insulin AUC” value in data set [5] (GLP-1 1.5 pmol/kg per min i.v., saline 1775±357) worked out at 2920±516 μU×min/L. In addition, the “food intake / feeding” value in data set [1] (intracerebroventricular administration, fasted rats) was “reduce food intake; also recorded: inhibited feeding”. Besides, in data set [1] (intraperitoneal application, rats), the food intake entry is recorded as “did not have any effect”. For the same compound, the effect on appetite result in data set [6] was “no effect on appetite”.
